These are literature values, as cited in paper PMC8492600 (Cell Systems, 2021).

The target in one data set is HLA-A*02:01 (Homo sapiens, UniProt P04439, D140Y/D185E/D98H/E176V/E277Q/G131W/G231S/I119V/I121R/I166T/I218V/L300P/L318F/N151K/N90K/P208A/P217A/Q86G/Q94H/R138H/R169H/T345S).
The target in a further data set is HLA-B*40:01 (Homo sapiens, UniProt P01889, A65T/A93T/A95T/D138N/D98Y/E176V/E69K/N87E/Q56L/Q94N/R180L/S121R/S35A/S48T/T167S/V36M/W171L/Y33H/Y91S).

As for GFMWLSYFI, the “binding of the mutated epitope to HLA-A*02:01” value at HLA-A*02:01 is “lose binding”.

As for MKVTPSGTWL, on HLA-B*40:01, the “binding of the mutated epitope to HLA-B*40:01” value is reported as “lose binding”.
